From patent US20090306218A1, “Antimicrobial formulations” (priority 2006, published 2009)
Values after ≈ are worked out from the molar mass of the structure shown. Like-named read-outs stand apart in the source and are kept apart here.

Experiments:
[1] = test system: Propionibacterium acnes NCTC 737; experiment: Minimum inhibitory concentration (MIC) assay, liquid medium; type: cell-based; conditions: for MIC: P. acnes NCTC 737
Procedure: (§1) (a) Minimum Inhibitory Concentration (MIC) Assay
(§2) This is a standard international method for quantitatively assessing the antimicrobial activity of a compound in a liquid medium. The method used a sterile 96-well microtitre plate, capable of holding about 200 μl of liquid per well. […] The culture medium was as described above.
(§3) After incubation, the microtitre plate was examined visually (with the aid of a light box) for cloudiness in each well, which would indicate microbial growth. The MIC value was recorded as the lowest concentration of test compound required to inhibit microbial growth, i.e., the lowest concentration for which the liquid in the well remained clear.
(§4) The assays were conducted in duplicate (minimum) and included both negative (culture medium with no micro-organisms) and positive (culture medium plus diluting solvent plus micro-organism) controls.
(§5) MIC, MBC and DDA assays, as described above, were carried out using the test compound t-butyl-p-hydroquinone (TBHQ) and a range of bismuth salts (all ex-Sigma Aldrich, UK).

[2] = test system: Propionibacterium acnes NCTC 737; experiment: Minimum bactericidal concentration (MBC) assay; type: cell-based; conditions: P. acnes NCTC 737
Procedure: (§6) (b) Minimum Bactericidal Concentration (MBC) Assay
as §5

[3] = test system: Propionibacterium acnes NCTC 737; experiment: Disc diffusion assay (DDA); type: cell-based; conditions: P. acnes NCTC 737, 200 μg per disc
Procedure: (d) Disc Diffusion Assay (DDA)
This is an internationally recognised standard method for qualitatively assessing the antimicrobial activity of a compound.
A sterile paper disc was impregnated with a sample of the test compound in a suitable solvent and 30 minutes allowed for the solvents to evaporate (where possible). The disc was then placed on an agar plate onto which the test micro-organism had been inoculated. The plate was then incubated under the conditions described above, following which it was examined visually for signs of microbial growth. […] The diameter of this zone of “inhibition” was measured using a ProtoCOL™ automated zone sizer (Synbiosis, Cambridge, UK).
The TBHQ was dissolved in ethanol and the bismuth salts in DMSO.
All the (S)DDA experiments were conducted in triplicate.
DDA assays, as described above, were carried out using each of the test compounds individually. The quinone/bismuth salt combinations were then subjected to the SDDA assay described above.
The quinones and bismuth salts were all dissolved in DMSO.

[4] = test system: P. acnes PRP panel strains; type: cell-based, Propionibacterium acnes; conditions: for MIC: liquid medium
[5] = test system: P. granulosum panel strains; experiment: MIC assay, liquid medium, panel of propionibacteria; type: cell-based, Propionibacterium granulosum
[6] = test system: P. acnes PRP panel strains; type: cell-based, Propionibacterium acnes; conditions: 200 μg per disc
[7] = test system: P. granulosum panel strains; experiment: Disc diffusion assay (DDA), panel of propionibacteria; type: cell-based, Propionibacterium granulosum; conditions: 200 μg per disc
[8] = test system: Por. gingivalis NCTC 11834; experiment: MIC assay, liquid medium; type: cell-based, Porphyromonas gingivalis
Procedure: as §1, §2, §3, §4
(§7) MIC and MBC assays, as described above, were carried out using the test compounds t-butyl-p-hydroquinone (TBHQ) and bismuth subsalicylate (both ex-Sigma Aldrich). The TBHQ was dissolved in ethanol and the bismuth subsalicylate in DMSO. All the experiments were conducted in triplicate.

[9] = test system: Por. gingivalis NCTC 11834; experiment: MBC assay; type: cell-based, Porphyromonas gingivalis
Procedure: as §6, §7

[10] = test system: P. acnes PRP panel strains; experiment: MBC assay, panel of propionibacteria
Procedure: (§8) This assay, normally carried out after an MIC assay, determines the minimum concentration of a compound that is lethal to the micro-organism being tested.
(§9) These samples were then individually sub-cultured on antibiotic-free agar medium, under the incubation conditions described above. Following incubation they were examined visually for microbial growth.

[11] = test system: P. granulosum panel strains; experiment: MBC assay, panel of propionibacteria
Procedure: as §8, §9

[12] = P. acnes PRP-002, resistance phenotype Tet/MLS
[13] = P. acnes PRP-003, resistance phenotype Tet
[14] = P. acnes PRP-004, resistance phenotype Tet
[15] = P. acnes PRP-007, resistance phenotype Clin
[16] = P. acnes PRP-008, resistance phenotype Clin
[17] = P. acnes PRP-010, resistance phenotype MLSK
[18] = P. acnes PRP-017, resistance phenotype MLS
[19] = P. acnes PRP-023, resistance phenotype MLSK
[20] = P. acnes PRP-026, resistance phenotype MLS
[21] = P. acnes PRP-039, resistance phenotype Tet/MLS
[22] = P. acnes PRP-046, resistance phenotype None
[23] = P. acnes PRP-053, resistance phenotype Tet/MLS
[24] = P. acnes PRP-059, resistance phenotype MLS
[25] = P. acnes PRP-068, resistance phenotype Ery
[26] = P. acnes PRP-101, resistance phenotype Tet/MLS
[27] = P. acnes PRP-102, resistance phenotype Tet/MLS
[28] = P. granulosum NCTC 11865, resistance phenotype None
[29] = P. granulosum PRP-005, resistance phenotype MLSK
[30] = P. granulosum PRP-006, resistance phenotype MLS
[31] = P. granulosum PRP-019, resistance phenotype MLSK
[32] = P. granulosum PRP-021, resistance phenotype MLS
[33] = P. granulosum PRP-043, resistance phenotype MLS
[34] = P. granulosum PRP-044, resistance phenotype MLS
[35] = P. granulosum PRP-055, resistance phenotype None

For `CC(C)(C)c1cc(O)ccc1O` [TBHQ, t-butyl-p-hydroquinone], the MIC ([1]; Table 1) was 7.8 µg/mL (≈ 46.9 µM), the MIC ([1]; separate experiment, Table 3) was 7.8 µg/mL (≈ 46.9 µM) and the “activity against P. acnes NCTC 737 (in words)” value ([1]; compound alone, data of Tables 1 and 2) was “active”. For the same compound, the MBC ([2]; Table 1) was 7.8 µg/mL (≈ 46.9 µM), the MIC/MBC ratio ([2]; Table 1) was 1 and the MBC ([2]; separate experiment, Table 3) was 7.8 µg/mL (≈ 46.9 µM). The MIC/MBC ratio ([2]; separate experiment, Table 3) was 1, the “DDA (zone of inhibition diameter)” value ([3]; Table 2) was 11.04 mm and the “DDA (zone of inhibition diameter)” value ([3]; separate experiment, Table 4) was 14.68 mm. It also gave an MIC [4, 12] of 3.9 µg/mL (≈ 23.5 µM), an MIC [4, 13] of 7.8 µg/mL (≈ 46.9 µM) and an MIC [4, 14] of 1.95 µg/mL (≈ 11.7 µM). For the same compound, the MIC [4, 15] was 3.9 µg/mL (≈ 23.5 µM), the MIC [4, 16] was 3.9 µg/mL (≈ 23.5 µM) and the MIC [4, 17] was 3.9 µg/mL (≈ 23.5 µM). For the same compound, the MIC [4, 18] was 3.9 µg/mL (≈ 23.5 µM), the MIC [4, 19] was 3.9 µg/mL (≈ 23.5 µM) and the MIC [4, 20] was 3.9 µg/mL (≈ 23.5 µM). For the same compound, the MIC [4, 21] was 3.9 µg/mL (≈ 23.5 µM), the MIC [4, 22] was 1.95 µg/mL (≈ 11.7 µM) and the MIC [4, 23] was 3.9 µg/mL (≈ 23.5 µM). For the same compound, the MIC [4, 24] was 3.9 µg/mL (≈ 23.5 µM), the MIC [4, 25] was 3.9 µg/mL (≈ 23.5 µM) and the MIC [4, 26] was 3.9 µg/mL (≈ 23.5 µM). For the same compound, the MIC [4, 27] was 7.8 µg/mL (≈ 46.9 µM), the “activity against the panel of propionibacteria (in words)” value ([4]; P. acnes and P. granulosum strains of Tables 6 and 7) was “active against all of the propionibacterial strains tested” and the MIC [5, 28] was 3.9 µg/mL (≈ 23.5 µM). It also gave an MIC [5, 29] of 62.5 µg/mL (≈ 376 µM), an MIC [5, 30] of 7.8 µg/mL (≈ 46.9 µM) and an MIC [5, 31] of 31.25 µg/mL (≈ 188 µM). The MIC [5, 32] was 15.6 µg/mL (≈ 93.9 µM), the MIC [5, 33] was 15.6 µg/mL (≈ 93.9 µM) and the MIC [5, 34] was 15.6 µg/mL (≈ 93.9 µM). The MIC [5, 35] was 3.9 µg/mL (≈ 23.5 µM), the “DDA (zone diameter)” value ([6]; P. acnes PRP-002) was 18.12 mm and the “DDA (zone diameter)” value ([6]; P. acnes PRP-003) was 18.12 mm. The “DDA (zone diameter)” value ([6]; P. acnes PRP-004) was 19.88 mm, the “DDA (zone diameter)” value ([6]; P. acnes PRP-007) was 12.74 mm and the “DDA (zone diameter)” value ([6]; P. acnes PRP-008) was 17.92 mm. The “DDA (zone diameter)” value ([6]; P. acnes PRP-010) was 18.54 mm, the “DDA (zone diameter)” value ([6]; P. acnes PRP-017) was 13.98 mm and the “DDA (zone diameter)” value ([6]; P. acnes PRP-023) was 18.54 mm. The “DDA (zone diameter)” value ([6]; P. acnes PRP-026) was 13.98 mm, the “DDA (zone diameter)” value ([6]; P. acnes PRP-039) was 17.71 mm and the “DDA (zone diameter)” value ([6]; P. acnes PRP-046) was 20.71 mm. The “DDA (zone diameter)” value ([6]; P. acnes PRP-053) was 17.09 mm, the “DDA (zone diameter)” value ([6]; P. acnes PRP-059) was 19.88 mm and the “DDA (zone diameter)” value ([6]; P. acnes PRP-068) was 16.78 mm. The “DDA (zone diameter)” value ([6]; P. acnes PRP-101) was 12.84 mm, the “DDA (zone diameter)” value ([6]; P. acnes PRP-102) was 14.50 mm and the “DDA (zone diameter)” value ([7]; P. granulosum NCTC 11865) was 11.50 mm. For the same compound, the “DDA (zone diameter)” value ([7]; P. granulosum PRP-005) was 10.67 mm, the “DDA (zone diameter)” value ([7]; P. granulosum PRP-006) was 9.42 mm and the “DDA (zone diameter)” value ([7]; P. granulosum PRP-019) was 10.36 mm. The “DDA (zone diameter)” value ([7]; P. granulosum PRP-021) was 0.00 mm, the “DDA (zone diameter)” value ([7]; P. granulosum PRP-043) was 0.00 mm and the “DDA (zone diameter)” value ([7]; P. granulosum PRP-044) was 0.00 mm. For the same compound, the “DDA (zone diameter)” value ([7]; P. granulosum PRP-055) was 18.02 mm, the MIC ([8]; Por. gingivalis NCTC 11834) was under 0.49 µg/mL and the “activity against Por. gingivalis NCTC 11834 (in words)” value ([8]; compound alone, data of Table 8) was “active”. For the same compound, the MBC [9] was 0.49 µg/mL (≈ 2.95 µM), the MIC/MBC ratio [9] was under 1 and the MBC [10, 12] was 7.8 µg/mL (≈ 46.9 µM). It also gave an MBC [10, 13] of 7.8 µg/mL (≈ 46.9 µM), an MBC [10, 14] of 7.8 µg/mL (≈ 46.9 µM) and an MBC [10, 15] of 7.8 µg/mL (≈ 46.9 µM). The MBC [10, 16] was 7.8 µg/mL (≈ 46.9 µM), the MBC [10, 17] was 15.6 µg/mL (≈ 93.9 µM) and the MBC [10, 18] was 7.8 µg/mL (≈ 46.9 µM). The MBC [10, 19] was 7.8 µg/mL (≈ 46.9 µM), the MBC [10, 20] was 7.8 µg/mL (≈ 46.9 µM) and the MBC [10, 21] was 7.8 µg/mL (≈ 46.9 µM). The MBC [10, 22] was 7.8 µg/mL (≈ 46.9 µM), the MBC [10, 23] was 7.8 µg/mL (≈ 46.9 µM) and the MBC [10, 24] was 7.8 µg/mL (≈ 46.9 µM). The MBC [10, 25] was 7.8 µg/mL (≈ 46.9 µM), the MBC [10, 26] was 7.8 µg/mL (≈ 46.9 µM) and the MBC [10, 27] was 15.6 µg/mL (≈ 93.9 µM). It also gave an MBC [11, 28] of 7.8 µg/mL (≈ 46.9 µM), an MBC [11, 29] of 62.5 µg/mL (≈ 376 µM) and an MBC [11, 30] of 7.8 µg/mL (≈ 46.9 µM). It also gave an MBC [11, 31] of 31.25 µg/mL (≈ 188 µM), an MBC [11, 32] of 31.25 µg/mL (≈ 188 µM) and an MBC [11, 33] of 15.6 µg/mL (≈ 93.9 µM). For the same compound, the MBC [11, 34] was 31.25 µg/mL (≈ 188 µM) and the MBC [11, 35] was 7.8 µg/mL (≈ 46.9 µM).
